Where two headings read alike, the source gives them in different places.
Columns and labels:
[1] = target: Rat α4β2 (Rattus norvegicus, UniProt P09483+P12390); assay: Binding to rat α4β2 NNR (Ki)
Protocol: (§1) Binding and function of the compounds to relevant receptor sites was determined in accordance with the techniques described in PCT WO 2008/057938. Inhibition constants (Ki values), reported in nM, were calculated from the IC50 values using the method of Cheng et al., Biochem. Pharmacol. 22: 3099 (1973). […] Thus, the compounds of the present invention are selective modulators of the α4β2 NNR subtype.

[2] = target: Human α4β2 (Homo sapiens, UniProt P17787+P43681); assay: Binding to human α4β2 NNR (Ki)
Protocol: as §1

[3] = target: Rat α7 (Rattus norvegicus, UniProt Q05941); assay: Binding to rat α7 NNR (Ki)
Protocol: as §1

[4] = target: T1, human α4β2 NNRs (Homo sapiens, UniProt P17787+P43681); assay: Function at human α4β2 NNRs, SH-EP1/human a4b2 cells, FLIPR calcium; format: cell-based
T1 construct: expressed in transfected cells; host or cells: SH-EP1
Protocol: as §1
After the loading period, plates were equilibrated to room temperature and the cells exposed to the test article ([…]) or nicotine or buffer alone on a FLIPR (Molecular Devices). Fluorescence (at 485 nm) was monitored throughout the experiment. The test article change in fluorescence was compared to both a positive control (10 μM nicotine) and a negative control (buffer alone) to determine the percent response relative to that of nicotine.

[5] = target: Human Ganglion (Homo sapiens, UniProt P30926+P32297); assay: Function at human ganglion subtype, single point 100 μM; format: cell-based
Protocol: as §1

[6] = target: Human Muscle (Homo sapiens, UniProt P02708+P07510+Q07001); assay: Function at human muscle subtype, single point 100 μM; format: cell-based
Protocol: as §1

[7] = Single rising dose (SRD) study of Compound C, plasma pharmacokinetics of racemate and enantiomers; format: in vivo; conditions: for t1/2 (mean) / Cmax / Tmax / AUC(0-inf) / half-life: plasma; for t1/2 (mean): Table 3; for Cmax / Tmax / AUC(0-inf) / half-life: human; for AUC(0-inf): read-out: AUCinf (mean)
Protocol: A single, rising dose (SRD) study was performed with Compound C (the racemate). Plasma samples were analyzed for the content of the two enantiomers, Compound A (substantially pure R), Compound B (substantially pure S). Three dose groups (Compound C) were analyzed, 50, 100, and 400 mg, and four subjects were randomly selected from the 6 subjects tested to receive active treatment in each cohort examined in the SRD study.

[8] = tested on: mice; assay: Seizure induction after acute dose, mice; format: in vivo; conditions: female mice; acute oral dose of 400 mg/kg
Description: For example, preclinically, Compound C induced seizures following acute doses: […]

[9] = tested on: rats; assay: Seizure/convulsion induction after acute dose, rats; format: in vivo
Protocol: For example, preclinically, Compound C induced seizures following acute doses:
Likewise, Compound B induced convulsion in 1/6 male rats following an acute oral dose of 300 mg/kg.
In fact, the effect of Compound A was not statistically different from the vehicle control.

[10] = tested on: nicotinic; assay: Standard receptor screen at 10 μM: nicotinic; format: binding; conditions: hydrochloride salt
Protocol: (§2) Both Compound A, (R)-7-(3-pyridinyl)-1,7-diazaspiro[4.4]nonane, and Compound B, (S)-7-(3-pyridinyl)-1,7-diazaspiro[4.4]nonane, each as their hydrochloride salts, were screened, at 10 μM concentration, against a standard set of receptors. […] Thus, the two stereoisomers differentiate from one another in terms of their non-nicotinic receptor binding characteristics. This differentiation is believed to translate into a differentiation between the ability of each of (R)-7-(3-pyridinyl)-1,7-diazaspiro[4.4]nonane and (S)-7-(3-pyridinyl)-1,7-diazaspiro[4.4]nonane to treat various disease states, including, for example, the ability of Compound A to enhance desensitization of α4β2 NNRs.

[11] = target: histamine H1 (Homo sapiens, UniProt P35367); assay: Standard receptor screen at 10 μM: histamine H1; format: binding; conditions: hydrochloride salt, read-out: inhibition at histamine H1 receptors
Protocol: as §2

[12] = tested on: rat; assay: Anxiety model, elevated plus maze (EPM); format: in vivo; conditions: 0.02, 0.06, and 0.21 mg/kg i.p. 30 minutes before the test, FIG. 1
Description: The method, which detects anxiolytic activity, follows that described by Handley S. L. and Mithani S., Effects of alpha-adrenoceptor agonists and antagonists in a maze-exploration model of fear-motivated behaviour, Naunyn-Schmied. Arch. Pharmacol., 327, 1-5, 1984.
Rodents avoid open spaces (the open arms of an elevated plus-maze). Anxiolytics increase exploratory activity in the open arms. The maze consisted of 4 arms of equal length and width arranged in the form of a plus sign (+). Two opposite arms were enclosed by walls (closed arms). The two other arms had no walls (open arms). The maze was raised above the floor. A rat was placed in the centre of the plus-maze and left to explore for 5 minutes. The number of entries into the open and closed arms and the time spent in the open arms were recorded.
Ten (10) rats were studied per group. The test was performed blind. Compound A was evaluated at 0.02, 0.06, and 0.21 mg/kg, administered i.p. 30 minutes before the test, and compared with a vehicle control group. Clobazam, administered under the same experimental conditions, was used as reference substance. The experiment therefore included […].
Data were analyzed by comparing the treated groups with the control group using unpaired tests.

[13] = tested on: A/J mice; assay: Depression model, tail suspension (TS); format: in vivo; conditions: 0.1 mg/kg (p-hydroxybenzoate), 10 min test
Protocol: On the day of the test, A/J mice were brought to acclimate to the testing room for one hour. Eight animals were tested in each run. Following pretreatment with vehicle, desipramine (20 mg/kg) or Compound A, p-hydroxybenzoate (0.1, 0.3, and 1 mg/kg), a piece of transparent (Scotch) tape was attached to the tail of each mouse from about mid-tail with approximately 2 cm of tape past the end of the tail. The mice were then placed in the tail suspension chambers (white polyvinylchloride cubicles measuring 33×33×31.75 cm; Med Associates Inc., St Albans, Vt.). The mice were suspended from the hook of the TS force transducer via the tail tape. The force transducer transmitted the movements of the mouse to a recording device connected to a computer. Immobility time, struggle time, and intensity were automatically recorded for each min during the 10 min test period. Upon completion of the TS test, the mice were returned to their home cage and then to the animal colony. The TS chambers were cleaned between sessions. Data were analyzed by repeated measures and one-way analysis of variance (ANOVA) followed by Fisher PLSD post-hoc comparisons. An effect was considered significant if p<0.05.

[14] = tested on: animal models of depression and anxiety; assay: Validated animal models of depression and anxiety (summary statement); conditions: in vivo
[15] = SH-EP1/human a4b2 cells, FLIPR calcium, relative to 10 μM nicotine, read-out: Human α4β2 Emax (% of nic resp)
[16] = po, 50 mg Compound C (n = 4), read-out: Mean (SD) Terminal Elimination Half-life (converted)
[17] = po, 100 mg Compound C (n = 4), read-out: Mean (SD) Terminal Elimination Half-life (converted)
[18] = po, 400 mg Compound C (n = 4), read-out: Mean (SD) Terminal Elimination Half-life (converted)

T1 sequence (P43681 29-627 limits assumed): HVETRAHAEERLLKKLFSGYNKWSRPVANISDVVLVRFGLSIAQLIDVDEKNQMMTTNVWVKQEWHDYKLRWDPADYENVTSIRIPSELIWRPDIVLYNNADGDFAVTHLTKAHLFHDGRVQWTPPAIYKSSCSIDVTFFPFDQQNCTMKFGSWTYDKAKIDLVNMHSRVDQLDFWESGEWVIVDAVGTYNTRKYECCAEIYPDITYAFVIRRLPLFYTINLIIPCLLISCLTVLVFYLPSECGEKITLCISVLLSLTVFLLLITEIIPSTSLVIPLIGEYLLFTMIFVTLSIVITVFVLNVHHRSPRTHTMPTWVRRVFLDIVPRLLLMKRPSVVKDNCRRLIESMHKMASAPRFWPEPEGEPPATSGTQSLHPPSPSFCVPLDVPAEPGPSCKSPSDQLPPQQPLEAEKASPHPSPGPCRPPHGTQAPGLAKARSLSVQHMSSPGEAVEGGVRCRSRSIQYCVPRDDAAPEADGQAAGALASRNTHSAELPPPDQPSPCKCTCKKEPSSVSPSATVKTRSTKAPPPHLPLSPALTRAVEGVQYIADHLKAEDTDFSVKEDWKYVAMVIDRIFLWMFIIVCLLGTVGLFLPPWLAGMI
T1 sequence (P17787 26-502): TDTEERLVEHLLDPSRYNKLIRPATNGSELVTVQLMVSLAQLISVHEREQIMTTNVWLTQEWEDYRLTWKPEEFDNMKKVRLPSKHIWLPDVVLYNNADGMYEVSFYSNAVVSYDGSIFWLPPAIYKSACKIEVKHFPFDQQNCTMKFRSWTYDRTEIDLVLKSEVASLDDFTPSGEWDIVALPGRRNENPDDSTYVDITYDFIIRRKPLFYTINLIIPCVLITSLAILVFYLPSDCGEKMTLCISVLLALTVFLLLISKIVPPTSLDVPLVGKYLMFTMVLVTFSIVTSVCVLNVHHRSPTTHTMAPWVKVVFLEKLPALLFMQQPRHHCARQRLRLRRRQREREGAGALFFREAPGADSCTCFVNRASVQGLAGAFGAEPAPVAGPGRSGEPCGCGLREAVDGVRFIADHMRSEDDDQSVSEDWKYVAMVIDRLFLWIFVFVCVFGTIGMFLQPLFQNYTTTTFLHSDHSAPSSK
Rat α7, sequence (Q05941 23-502): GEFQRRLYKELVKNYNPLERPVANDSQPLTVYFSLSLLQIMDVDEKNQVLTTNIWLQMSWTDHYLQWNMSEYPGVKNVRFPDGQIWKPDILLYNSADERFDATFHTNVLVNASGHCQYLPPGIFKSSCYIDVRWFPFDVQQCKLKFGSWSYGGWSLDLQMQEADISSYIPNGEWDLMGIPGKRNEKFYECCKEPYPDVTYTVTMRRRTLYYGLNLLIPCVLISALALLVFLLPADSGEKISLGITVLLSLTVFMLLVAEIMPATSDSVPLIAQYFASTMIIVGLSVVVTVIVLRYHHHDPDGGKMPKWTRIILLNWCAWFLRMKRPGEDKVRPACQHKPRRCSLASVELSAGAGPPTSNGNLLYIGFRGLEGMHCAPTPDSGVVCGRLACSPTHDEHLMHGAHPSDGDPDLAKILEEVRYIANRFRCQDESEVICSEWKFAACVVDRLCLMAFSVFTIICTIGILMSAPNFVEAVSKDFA
Human Muscle, sequence (P02708 21-457): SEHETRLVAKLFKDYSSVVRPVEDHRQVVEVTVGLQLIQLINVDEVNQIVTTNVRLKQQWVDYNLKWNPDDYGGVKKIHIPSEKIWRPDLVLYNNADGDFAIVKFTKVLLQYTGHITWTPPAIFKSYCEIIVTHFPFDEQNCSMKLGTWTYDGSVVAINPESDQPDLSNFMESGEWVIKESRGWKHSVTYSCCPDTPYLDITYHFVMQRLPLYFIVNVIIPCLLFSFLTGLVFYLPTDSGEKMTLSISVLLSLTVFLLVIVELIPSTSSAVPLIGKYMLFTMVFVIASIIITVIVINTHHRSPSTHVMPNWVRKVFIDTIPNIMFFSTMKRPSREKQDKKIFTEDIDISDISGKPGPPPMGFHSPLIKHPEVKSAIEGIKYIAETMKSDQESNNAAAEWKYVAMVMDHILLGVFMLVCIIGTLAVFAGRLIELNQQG
Human Muscle, sequence (P11230 24-501 partner): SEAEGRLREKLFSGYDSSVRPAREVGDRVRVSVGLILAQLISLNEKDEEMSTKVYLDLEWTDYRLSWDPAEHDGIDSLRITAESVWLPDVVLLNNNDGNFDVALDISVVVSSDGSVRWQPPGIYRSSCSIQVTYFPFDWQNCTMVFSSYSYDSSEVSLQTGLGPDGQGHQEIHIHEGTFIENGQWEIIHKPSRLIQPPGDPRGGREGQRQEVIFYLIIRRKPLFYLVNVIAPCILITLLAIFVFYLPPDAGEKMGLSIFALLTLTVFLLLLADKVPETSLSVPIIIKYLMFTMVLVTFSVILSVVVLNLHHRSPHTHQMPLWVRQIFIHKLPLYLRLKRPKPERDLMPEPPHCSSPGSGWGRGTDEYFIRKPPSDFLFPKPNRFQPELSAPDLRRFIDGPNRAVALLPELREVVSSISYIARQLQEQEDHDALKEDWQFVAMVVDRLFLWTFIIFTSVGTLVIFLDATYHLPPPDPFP
Human Muscle, sequence (P07510 23-517): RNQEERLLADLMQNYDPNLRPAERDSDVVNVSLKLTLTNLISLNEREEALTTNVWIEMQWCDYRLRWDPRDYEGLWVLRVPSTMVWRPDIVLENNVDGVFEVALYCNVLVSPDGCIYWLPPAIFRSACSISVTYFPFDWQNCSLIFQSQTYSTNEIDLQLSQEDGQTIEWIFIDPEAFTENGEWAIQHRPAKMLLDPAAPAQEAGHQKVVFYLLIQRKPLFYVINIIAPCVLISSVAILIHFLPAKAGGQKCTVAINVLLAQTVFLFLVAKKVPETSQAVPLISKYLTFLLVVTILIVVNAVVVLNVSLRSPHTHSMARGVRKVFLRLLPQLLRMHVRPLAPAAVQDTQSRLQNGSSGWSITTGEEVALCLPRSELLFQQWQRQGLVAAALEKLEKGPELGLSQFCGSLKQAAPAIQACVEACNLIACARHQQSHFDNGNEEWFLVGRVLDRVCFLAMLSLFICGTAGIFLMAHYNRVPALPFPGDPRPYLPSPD
Human Muscle, sequence (Q07001 22-517): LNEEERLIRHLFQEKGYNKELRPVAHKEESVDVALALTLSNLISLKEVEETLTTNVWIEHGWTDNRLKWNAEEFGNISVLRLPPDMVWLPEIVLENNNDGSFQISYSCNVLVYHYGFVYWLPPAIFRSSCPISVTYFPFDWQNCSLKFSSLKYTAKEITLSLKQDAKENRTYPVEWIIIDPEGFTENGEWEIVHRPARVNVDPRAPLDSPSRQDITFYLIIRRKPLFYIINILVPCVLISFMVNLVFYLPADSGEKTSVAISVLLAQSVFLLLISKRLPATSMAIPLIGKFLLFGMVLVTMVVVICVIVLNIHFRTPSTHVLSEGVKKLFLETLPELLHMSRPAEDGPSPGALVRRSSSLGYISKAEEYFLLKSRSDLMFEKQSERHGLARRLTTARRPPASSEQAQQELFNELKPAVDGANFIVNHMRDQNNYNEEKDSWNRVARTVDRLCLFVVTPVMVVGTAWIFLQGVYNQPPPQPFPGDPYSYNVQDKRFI
Human Ganglion, sequence (P32297 32-505): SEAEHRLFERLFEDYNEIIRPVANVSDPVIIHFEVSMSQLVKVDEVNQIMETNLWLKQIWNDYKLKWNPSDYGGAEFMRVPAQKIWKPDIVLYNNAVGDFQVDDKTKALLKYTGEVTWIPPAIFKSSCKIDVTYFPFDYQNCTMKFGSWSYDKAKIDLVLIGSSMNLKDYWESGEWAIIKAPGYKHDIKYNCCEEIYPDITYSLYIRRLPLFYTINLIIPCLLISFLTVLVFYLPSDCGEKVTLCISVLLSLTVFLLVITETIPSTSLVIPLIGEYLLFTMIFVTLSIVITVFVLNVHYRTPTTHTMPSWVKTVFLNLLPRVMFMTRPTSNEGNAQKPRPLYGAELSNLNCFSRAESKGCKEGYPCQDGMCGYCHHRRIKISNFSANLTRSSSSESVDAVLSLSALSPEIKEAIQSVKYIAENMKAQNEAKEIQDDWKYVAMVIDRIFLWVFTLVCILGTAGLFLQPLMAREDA
Human Ganglion, sequence (P30926 22-498): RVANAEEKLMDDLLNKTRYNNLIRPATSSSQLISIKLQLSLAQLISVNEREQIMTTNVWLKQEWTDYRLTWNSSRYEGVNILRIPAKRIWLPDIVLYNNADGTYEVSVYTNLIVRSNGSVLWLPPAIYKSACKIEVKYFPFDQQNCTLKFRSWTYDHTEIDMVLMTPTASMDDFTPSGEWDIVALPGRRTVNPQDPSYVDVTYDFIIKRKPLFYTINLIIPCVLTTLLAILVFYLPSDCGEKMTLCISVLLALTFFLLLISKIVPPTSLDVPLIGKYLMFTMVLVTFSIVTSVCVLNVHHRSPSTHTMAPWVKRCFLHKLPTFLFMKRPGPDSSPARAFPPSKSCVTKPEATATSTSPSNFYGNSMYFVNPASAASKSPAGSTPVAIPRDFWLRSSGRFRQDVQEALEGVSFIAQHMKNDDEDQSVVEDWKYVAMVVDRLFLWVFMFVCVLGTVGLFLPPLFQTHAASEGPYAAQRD
Human α4β2, sequence (P43681 29-627 limits assumed): as the sequence (P43681 29-627 limits assumed) above
Human α4β2, sequence (P17787 26-502): as the sequence (P17787 26-502) above
histamine H1, sequence (P35367 whole entry): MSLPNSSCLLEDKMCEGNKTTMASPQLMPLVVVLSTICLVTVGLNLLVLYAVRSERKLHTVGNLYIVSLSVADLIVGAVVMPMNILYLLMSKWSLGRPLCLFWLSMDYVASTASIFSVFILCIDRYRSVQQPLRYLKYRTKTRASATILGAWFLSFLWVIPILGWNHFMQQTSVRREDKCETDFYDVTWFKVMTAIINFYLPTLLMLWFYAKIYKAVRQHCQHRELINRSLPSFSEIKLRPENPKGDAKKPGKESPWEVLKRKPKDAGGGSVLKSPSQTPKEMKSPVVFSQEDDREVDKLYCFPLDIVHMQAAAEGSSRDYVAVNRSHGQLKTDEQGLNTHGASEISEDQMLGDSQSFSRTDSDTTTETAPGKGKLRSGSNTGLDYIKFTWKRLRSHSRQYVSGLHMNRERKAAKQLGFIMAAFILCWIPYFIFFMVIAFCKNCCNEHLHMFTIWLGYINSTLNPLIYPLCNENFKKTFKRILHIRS

Structure (SMILES): c1cncc(N2CCC3(CCCN3)C2)c1 (racemic) [Compound C, 7-(3-pyridinyl)-1,7-diazaspiro[4.4]nonane]
- Ki [1]: 68 nM
- Ki [2]: 34 nM
- Ki [3]: > 10000 nM
- EC50 ([4]; SH-EP1/human a4b2 cells, FLIPR calcium, read-out: Human α4β2 EC50): 9100 nM
- Emax [4, 15]: 43%
- Human Ganglion SP (100 μM) [5]: 15
- Human Muscle SP (100 μM) [6]: 22
- t1/2 (mean) ([7]; 50 mg Compound C (n = 4)): 24.8 h
- t1/2 (mean) ([7]; 100 mg Compound C (n = 4)): 21.1 h
- t1/2 (mean) ([7]; 400 mg Compound C (n = 4)): 18.5 h
- Cmax ([7]; po, 50 mg Compound C (n = 4)): 21.8 ng/mL
- Tmax ([7]; po, 50 mg Compound C (n = 4)): 4.38 h
- AUC(0-inf) ([7]; po, 50 mg Compound C (n = 4)): 473 ng·h/mL
- half-life [7, 16]: 24.8 h
- Cmax ([7]; po, 100 mg Compound C (n = 4)): 44.7 ng/mL
- Tmax ([7]; po, 100 mg Compound C (n = 4)): 31.1 h
- AUC(0-inf) ([7]; po, 100 mg Compound C (n = 4)): 741 ng·h/mL
- half-life [7, 17]: 21.1 h
- Cmax ([7]; po, 400 mg Compound C (n = 4)): 295 ng/mL
- Tmax ([7]; po, 400 mg Compound C (n = 4)): 2 h
- AUC(0-inf) ([7]; po, 400 mg Compound C (n = 4)): 3680 ng·h/mL
- half-life [7, 18]: 18.5 h
- induced seizures (animals affected) [8]: 1/5 female mice
- induced seizures (animals affected) ([9]; female rats, acute IV dose of 100 mg/kg): 4/5 female rats
- induced seizures (animals affected) ([9]; female rats, acute oral dose of 200 mg/kg): 1/5 female rats
- induced seizures (animals affected) ([9]; female rats, acute oral dose of 800 mg/kg): 1/5 female rats
- induced seizures (animals affected) ([9]; male rats, acute IV dose of 100 mg/kg): 1/5 male rats
- induced seizures (animals affected) ([9]; male rats, acute oral dose of 800 mg/kg): 1/5 male rats

Structure (SMILES): c1cncc(N2CC[C@]3(CCCN3)C2)c1 [Compound A, (R)-7-(3-pyridinyl)-1,7-diazaspiro[4.4]nonane]
- Ki ([1]; read-out: Rat α4β2 Ki): 74 nM
- Ki ([2]; read-out: Human α4β2 Ki): 40 nM
- Ki ([3]; read-out: Rat α7 Ki): 5400 nM
- Emax [4, 15]: 9%
- Emax ([4]; SH-EP1, read-out: Emax at human α4β2 NNRs): 9%
- EC50 ([4]; read-out: EC50 at human α4β2 NNRs): 84000 nM
- Human Ganglion SP (100 μM) [5]: 3
- Human Muscle SP (100 μM) [6]: 6
- inhibition at nicotinic receptors [10]: 99 % inhibition
- inhibition at 10 µM [11]: 66%
- Activity in the EPM [12]: anxiolytic-like activity
- struggle intensity compared to saline [13]: increased struggle intensity
- total time immobile compared to saline [13]: decreased total time immobile
- Efficacy in multiple validated animal models of depression and anxiety [14]: demonstrated efficacy
- t1/2 (mean) ([7]; 50 mg Compound C (n = 4)): 27.5 h
- t1/2 (mean) ([7]; 100 mg Compound C (n = 4)): 23.7 h
- t1/2 (mean) ([7]; 400 mg Compound C (n = 4)): 22.4 h
- half-life ([7]; oral, after Compound C 50, 100, 400 mg, read-out: terminal elimination half-life longer than that of Compound B (converted)): ~6 h
- Cmax ([7]; po, 50 mg Compound C (n = 4)): 10.3 ng/mL
- Tmax ([7]; po, 50 mg Compound C (n = 4)): 4.38 h
- AUC(0-inf) ([7]; po, 50 mg Compound C (n = 4)): 256 ng·h/mL
- half-life [7, 16]: 27.5 h
- Cmax ([7]; po, 100 mg Compound C (n = 4)): 22.7 ng/mL
- Tmax ([7]; po, 100 mg Compound C (n = 4)): 3.25 h
- AUC(0-inf) ([7]; po, 100 mg Compound C (n = 4)): 451 ng·h/mL
- half-life [7, 17]: 23.7 h
- Cmax ([7]; po, 400 mg Compound C (n = 4)): 163 ng/mL
- Tmax ([7]; po, 400 mg Compound C (n = 4)): 2 h
- AUC(0-inf) ([7]; po, 400 mg Compound C (n = 4)): 2420 ng·h/mL
- half-life [7, 18]: 22.4 h
- share of total exposure (Cmax and AUCinf) compared to the racemate, Compound C ([7]; oral administration of Compound C): approximately half
- effect on seizure induction ([9]; under the same conditions (as Compound B: acute oral dose of 300 mg/kg, male rats)): no effect on seizure induction
